In patent US9119823B2 (priority 2008, dated 2015):
Read-outs that look alike come from different tables or passages of the source.

How the values were obtained:
[1] = tested on: nitric oxide synthase (NOS); settings: read-out: Michaelis constant (KM) for substrate; cited from earlier work
[2] = adults; cited from earlier work
[3] = man, cited from earlier work
[4] = in vivo; cited from earlier work
[5] = cited from earlier work
[6] = tested on: myocardial ischemia/reperfusion injury; settings: eNOS-/- mice, low NOx diet, 50 mg/L nitrite, 30 minutes ischemia and 24 hour reperfusion
[7] = tested on: myocardial ischemia/reperfusion (I/R) injury
[8] = cited from earlier work; for half life of nitrite in whole blood: human whole blood
[9] = 50 mg/L nitrite in the drinking water for 7 days
From the text: Enzymatic NO insufficiency is a hallmark of a number of diseases including cardiovascular disease. […] The mice were fed standard rodent chow or low NOx diet.

[10] = low NOx diet
[11] = cited from earlier work; remark: listed apart in the source
[12] = tested on: lesion formation on the abdominal aorta; settings: 50 mg/L nitrite for 12 weeks, high fat diet
From the text: Although the LDb mice spontaneously develop atherosclerosis on normal rodent chow, the addition of a high fat diet will accelerate the process from 8 months to 12 weeks.

[13] = two year study, male or female rats; cited from earlier work
[14] = two year study, male or female mice; cited from earlier work
[15] = tested on: tissue homogenates; settings: at 0.5% oxygen; cited from earlier work
[16] = 50 mg/L nitrite in the drinking water for 1 week

N=C(N)NCCC[C@H](N)C(=O)O [L-arginine]
Km [1]: 2.9 µM

O=[N+]([O-])[O-].[Na+] [nitrate, sodium nitrate]
clearance of nitrate from blood to urine [2]: Approximately 20 ml/min
poisoning, total oral daily dose ([3]; oral): > 4 g
dose generally fatal [3]: 13 to 15 g
dose that may be fatal [3]: 8 g
poisoning, single dose [3]: more than 1 g
circulating half life of nitrate [4]: 300 to 480 min
ingested nitrate actively taken up by the salivary glands ([5]; excreted in the saliva): ≤ 25%
salivary nitrate reduced to nitrite by bacteria in the mouth ([5]; in vivo): Approximately 20%

O=NO [nitrite, sodium nitrite]
protection from myocardial ischemia/reperfusion injury [6]: protected
survival 24 hours post-myocardial infarction ([7]; low NOx diet with nitrite-supplemented drinking water): 76.9%
reversal of the increased myocardial infarct size ([7]; low NOx diet, 50 mg/L sodium nitrite ad libitum in the drinking water): 57%
half-life of nitrite in the circulation ([8]; circulation): 1.83 min
half life of nitrite in whole blood [8]: 1.83 min
half life of nitrite in whole blood ([8]; listed as NO2^−): about 110 seconds
plasma and cardiac nitroso in eNOS-/- mice [9]: above C57 control levels
plasma nitrite in eNOS-/- mice [9]: restores
plasma and heart nitroso levels [10, 16]: replenished and increased
plasma and heart steady-state nitrite and nitrate concentrations [10, 16]: restored
nitrosyl-heme products ([10]; nitrite supplementation in the drinking water): replenished
fatal dose ([11]; in humans): 22 to 23 mg/kg
fatal dose of nitrite ([11]; in vivo): 22-23 mg/kg body weight
less lesion formation on the abdominal aorta than control group [12]: 20%
carcinogenic activity [13]: no evidence of carcinogenic activity
carcinogenic activity [14]: no evidence of carcinogenic activity

O=O [oxygen]
inhibition of nitrite reduction [15]: 80%
